This is an account of results in US20080070960A1, “Novel 3-Aryl-1,2-Benzisoxazole Derivatives and Use Thereof as Medicinal Products Against Cancer” (AVENTIS PHARMA S.A., priority 2005, published 2008).

For this experiment, the target named is Hsp82 (Saccharomyces cerevisiae, UniProt P02829). Nature of the experiment: Hsp82 ATPase activity inhibition (malachite green inorganic phosphate method, or PK/LDH coupled method). Format: biochemical. As for the experimental part:
The inorganic phosphate released during the hydrolysis of ATP by the ATPase activity of Hsp82 is quantified by the malachite green method. In the presence of this reagent, formation of the inorganic phosphate-molybdate-malachite green complex occurs, which complex absorbs at a wavelength of 620 nm.
The products to be evaluated are incubated in a reaction volume of 30 μl, in the presence of 1 μM Hsp82 and of 250 μM of substrate (ATP) in a buffer composed of 50 mM Hepes-NaOH (pH 7.5), 1 mM DTT, 5 mM MgCl2 and 50 mM KCl at 37° C. for 60 min. In parallel, a range of inorganic phosphate of between 1 and 40 μM is prepared in the same buffer. The ATPase activity is subsequently visualized by the addition of 60 μl of the biomol green reagent (Tebu). After incubation at ambient temperature for 20 min, the absorbance of the various wells is measured using a microplate reader at 620 nm. The concentration of inorganic phosphate of each sample is then calculated from the standard curve. The ATPase activity of Hsp82 is expressed as concentration of inorganic phosphate produced in 60 min. The effect of the various products tested is expressed as percentage inhibition of the ATPase activity.
The formation of ADP due to the ATPase activity of Hsp82 was used to develop another method for evaluating the enzymatic activity of this enzyme by application of an enzymatic coupling system involving pyruvate kinase (PK) and lactate dehydrogensase (LDH). In this kinetic-type spectrophotometric method, the PK catalyses the formation of ATP and of pyruvate from phosphoenol pyruvate (PEP) and from the ADP produced by Hsp82. The pyruvate formed, which is a substrate for LDH, is subsequently converted into lactate in the presence of NADH. In this case, the decrease in NADH concentration, measured by the decrease in absorbance at the wavelength of 340 nm, is proportional to the concentration of ADP produced by Hsp82.
The products tested are incubated in a reaction volume of 100 μl of buffer composed of 100 mM Hepes-NaOH (pH 7.5), 5 mM MgCl2, 1 mM DTT, 150 mM KCl, 0.3 mM NADH, 2.5 mM PEP and 250 μM ATP. This mixture is preincubated at 37° C. for 30 min before the addition of 3.77 units of LDH and 3.77 units of PK. The reaction is initiated by the addition of the product to be evaluated, at varying concentrations, and of Hsp82, at a concentration of 1 μM. The enzymatic activity of Hsp82 is then measured, continuously, in a microplate reader, at 37° C., at the wavelength of 340 nm. The initial rate of the reaction is obtained by measuring the slope of the tangent at the origin of the curve recorded. The enzymatic activity is expressed in μM of ADP formed per minute. The effect of the various products tested is expressed as percentage inhibition of the ATPase activity.

Setting [1] is: inhibition of ATPase activity of Hsp82, 1 μM Hsp82, 250 μM ATP, 37° C., read-out: IC50.

Molecules are shown by their SMILES. Read-outs that look alike come from different tables or passages of the source. Bounds are passed on as bounds.

Sequence of Hsp82 (P02829 whole entry): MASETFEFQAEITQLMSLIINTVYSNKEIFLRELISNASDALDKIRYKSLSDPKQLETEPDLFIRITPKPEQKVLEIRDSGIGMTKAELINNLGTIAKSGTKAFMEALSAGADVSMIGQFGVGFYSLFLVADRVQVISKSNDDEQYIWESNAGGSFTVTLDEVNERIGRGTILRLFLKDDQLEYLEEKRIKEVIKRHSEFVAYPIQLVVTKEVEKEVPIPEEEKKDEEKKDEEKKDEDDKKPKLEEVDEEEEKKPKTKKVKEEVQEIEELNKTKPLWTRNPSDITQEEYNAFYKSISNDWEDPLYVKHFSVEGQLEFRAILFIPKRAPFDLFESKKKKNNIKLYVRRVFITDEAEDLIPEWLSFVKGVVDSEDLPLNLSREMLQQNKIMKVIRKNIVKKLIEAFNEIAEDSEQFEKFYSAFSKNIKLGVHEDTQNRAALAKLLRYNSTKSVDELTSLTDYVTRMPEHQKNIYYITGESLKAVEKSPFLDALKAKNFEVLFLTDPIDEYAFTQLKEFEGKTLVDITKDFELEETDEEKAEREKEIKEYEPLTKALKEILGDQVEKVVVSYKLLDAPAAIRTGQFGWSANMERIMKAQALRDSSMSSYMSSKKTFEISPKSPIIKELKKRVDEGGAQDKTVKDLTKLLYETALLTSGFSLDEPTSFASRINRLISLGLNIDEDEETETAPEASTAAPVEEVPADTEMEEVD

As usually defined, the IC50 is the concentration that gives 50% inhibition. On to `Oc1ccc(-c2noc3ccccc23)c(O)c1` [Example 1, 4-(1,2-Benzisoxazol-3-yl)benzene-1,3-diol], for which the IC50 is 1 to 10 µM. In the case of `Oc1cc(O)c(-c2noc3ccccc23)cc1Br` [Example 2, 4-(1,2-Benzisoxazol-3-yl)-6-bromobenzene-1,3-diol], the IC50 under setting [1] lay within 1 to 10 µM. `COC(=O)c1cc(-c2noc3ccccc23)c(O)cc1O` [Example 3, 5-(1,2-Benzisoxazol-3-yl)-2,4-dihydroxybenzenecarboxylic acid methyl ester]: under setting [1], the IC50 was 10 to 100 µM. Regarding `O=C(NCc1ccccc1)c1cc(-c2noc3ccccc23)c(O)cc1O` [Example 4, N1-Phenylmethyl-5-(1,2-benzisoxazol-3-yl)-2,4-dihydroxybenzenecarboxamide], under setting [1], the IC50 is 10 to 100 µM. Regarding `O=C(Cc1ccccc1)c1cc(-c2noc3ccccc23)c(O)cc1O` [Example 5], the IC50 under setting [1] fell in the range of 10 to 100 µM. Still for that read-out and setting: the result for `CCc1cc(-c2noc3ccccc23)c(O)cc1O` [Example 6, 4-(1,2-Benzisoxazol-3-yl)-6-ethylbenzene-1,3-diol] reads 1 to 10 µM; that for `Oc1cc(O)c(-c2noc3ccccc23)cc1CCc1ccccc1` [Example 7, 4-(1,2-Benzisoxazol-3-yl)-6-(2-phenylethyl)benzene-1,3-diol], 1 to 10 µM.

As to `Oc1cc(O)c(-c2noc3ccccc23)cc1CNc1ccccc1` [Example 8, 4-(1,2-Benzisoxazol-3-yl)-6-(phenylamino)methylbenzene-1,3-diol], under setting [1], the IC50 lay within 1 to 10 µM.

`Cc1ccc(NCc2cc(-c3noc4ccccc34)c(O)cc2O)cc1C` [Example 9, 4-(1,2-Benzisoxazol-3-yl)-6-(3,4-dimethylphenylamino)methylbenzene-1,3-diol]: the IC50 under setting [1] was less than 1 µM.

Turning to `COc1cc(O)c(-c2noc3ccccc23)cc1CNc1ccc(C)c(C)c1` [Example 10, 2-(1,2-benzisoxazol-3-yl)-4-(3,4-dimethylphenylamino)methyl-5-methoxyphenol], the IC50 under setting [1] is 10 to 100 µM. `Oc1cc(O)c(-c2noc3ccccc23)cc1CNc1ccc(Cl)c(Cl)c1` [Example 11, 4-(1,2-Benzisoxazol-3-yl)-6-(3,4-dichlorophenylamino)methylbenzene-1,3-diol]: the IC50 under setting [1] was in the range of 1 to 10 µM. On the same count and under the same terms, the result for `Oc1cc(O)c(-c2noc3ccccc23)cc1/C=N/c1ccc(Cl)c(Cl)c1` [Example 12, 4-(1,2-benzisoxazol-3-yl)-6-(3,4-dichlorophenyl)iminomethylbenzene-1,3-diol] reads 1 to 10 µM.
